How the values were obtained:
[1] = system: Human immunodeficiency virus 1; assay: Resistance index, ratio of EC50 for HIV-1 harboring reverse transcriptase K103N/Y181C double mutant to EC50 for wild type HIV-1 NL4-3; assay type: functional
[2] = system: Human immunodeficiency virus 1; assay: Antiviral activity against HIV-1 harboring reverse transcriptase K103N/Y181C double mutant infected in human MT4 cells assessed as inhibition of virus-induced cytopathic effect after 5 days by MTT assay; assay type: functional, organism-based; details: Human immunodeficiency virus 1, MT4, 120 h
[3] = system: Human immunodeficiency virus 1; assay: Potency index, ratio of TMC120 EC50 to compound EC50 for HIV-1 IRLL98 harboring reverse transcriptase M41L, D67N, Y181C, M184V, R211K, and T215Y mutants infected in human MT4 cells; assay type: functional
[4] = system: Human immunodeficiency virus 1; assay: Antiviral activity against HIV-1 harboring reverse transcriptase K103N mutant infected in human MT4 cells assessed as inhibition of virus-induced cytopathic effect after 5 days by MTT assay; assay type: functional, organism-based; details: Human immunodeficiency virus 1, MT4, 120 h
[5] = system: Human immunodeficiency virus 1; assay: Resistance index, ratio of EC50 for HIV-1 harboring reverse transcriptase K103N mutant to EC50 for wild type HIV-1 NL4-3; assay type: functional
[6] = system: Human immunodeficiency virus 1; assay: Antiviral activity against HIV 1 harboring reverse transcriptase Y181C mutant infected in human MT4 cells assessed as inhibition of virus-induced cytopathic effect after 5 days by MTT assay; assay type: functional, organism-based; details: Human immunodeficiency virus 1, MT4, 120 h
[7] = system: Human immunodeficiency virus 1; assay: Antiviral activity against HIV-1 harboring reverse transcriptase Y188L mutant infected in human MT4 cells assessed as inhibition of virus-induced cytopathic effect after 5 days by MTT assay; assay type: functional, organism-based; details: Human immunodeficiency virus 1, MT4, 120 h
[8] = Cytotoxicity against human MT4 cells assessed as reduction in cell viability after 5 days by MTT assay; assay type: cell-based
[9] = system: Human immunodeficiency virus 1; assay: Resistance index, ratio of ID50 for recombinant HIV-1 His-tagged reverse transcriptase p66/p51 L100I mutant to ID50 for recombinant wild type HIV-1 reverse transcriptase His-tagged p66/p51
[10] = system: Human immunodeficiency virus 1; assay: Potency index, ratio of EFV EC50 to compound EC50 for HIV-1 IRLL98 harboring reverse transcriptase M41L, D67N, Y181C, M184V, R211K, and T215Y mutants infected in human MT4 cells; assay type: functional
[11] = system: Human immunodeficiency virus 1; assay: Resistance index, ratio of ID50 for recombinant HIV-1 His-tagged reverse transcriptase p66/p51 Y181I mutant to ID50 for recombinant wild type HIV-1 reverse transcriptase His-tagged p66/p51
[12] = system: Human immunodeficiency virus 1; assay: Resistance index, ratio of EC50 for HIV-1 IRLL98 harboring reverse transcriptase M41L, D67N, Y181C, M184V, R211K, and T215Y mutants to EC50 for wild type HIV-1 NL4-3; assay type: functional
[13] = system: Human immunodeficiency virus 1; assay: Resistance index, ratio of EC50 for HIV-1 harboring reverse transcriptase Y181C mutant to EC50 for wild type HIV-1 NL4-3; assay type: functional
[14] = system: Human immunodeficiency virus 1; assay: Resistance index, ratio of ID50 for recombinant HIV-1 His-tagged reverse transcriptase p66/p51 K103N mutant to ID50 for recombinant wild type HIV-1 reverse transcriptase His-tagged p66/p51
[15] = system: Human immunodeficiency virus 1; assay: Antiviral activity against HIV-1 IRLL98 harboring reverse transcriptase M41L, D67N, Y181C, M184V, R211K, and T215Y mutants infected in human MT4 cells assessed as inhibition of virus-induced cytopathic effect after 5 days by MTT assay; assay type: functional, organism-based; details: Human immunodeficiency virus 1, IRLL98, MT4, 120 h
[16] = system: Human immunodeficiency virus 1; assay: Resistance index, ratio of EC50 for HIV-1 harboring reverse transcriptase Y188L mutant to EC50 for wild type HIV-1 NL4-3; assay type: functional
[17] = Therapeutic index, ratio of CC50 for human MT4 cells to EC50 for HIV-1 NL4-3 infected in human MT4 cells; assay type: toxicity, cell-based; details: read-out: Ratio CC50/EC50
[18] = system: Human immunodeficiency virus type 1 reverse transcriptase (Human immunodeficiency virus 1), Q72547 [Y181I]
[19] = system: Human immunodeficiency virus 1; assay: Potency index, ratio of EFV EC50 to compound EC50 for HIV-1 harboring reverse transcriptase K103N/Y181C double mutant infected in human MT4 cells; assay type: functional
[20] = target: Human immunodeficiency virus type 1 reverse transcriptase (Human immunodeficiency virus 1) (UniProt Q72547)
Description: Inhibition of recombinant wild type HIV-1 His-tagged reverse transcriptase p66/p51 expressed in Escherichia coli assessed as reduction in [3H]dTTP incorporation using poly(rA)/oligo(dT) as template/primer after 20 mins by scintillation counting analysis

[21] = system: Human immunodeficiency virus type 1 reverse transcriptase (Human immunodeficiency virus 1), Q72547 [K103N]
Description: Inhibition of recombinant HIV-1 His-tagged reverse transcriptase p66/p51 K103N mutant expressed in Escherichia coli assessed as reduction in [3H]dTTP incorporation using poly(rA)/oligo(dT) as template/primer after 20 mins by scintillation counting analysis

[22] = system: Human immunodeficiency virus 1; assay: Antiviral activity against wild type HIV 1 NL4-3 infected in human MT4 cells assessed as inhibition of virus-induced cytopathic effect after 5 days by MTT assay; assay type: functional, organism-based; details: Human immunodeficiency virus 1, NL4-3, MT4, 120 h
[23] = system: Human immunodeficiency virus type 1 reverse transcriptase (Human immunodeficiency virus 1), Q72547 [L100I]

CCCN(C)c1nc(C(OC)c2c(Cl)cccc2Cl)c(C)c(=O)[nH]1 (stereo unspecified)
Ratio EC50 [1]: 34 | EC50 [2]: 31 nM | Ratio EC50 [3]: 3 - 10 | EC50 [4]: 6 to 7 nM | Ratio EC50 [5]: 7 | EC50 [6]: 11 to 14 nM | EC50 [7]: 30 to 35 nM | CC50 at 120 h [8]: 70800 nM | Ratio [9]: 21 to 23 | Ratio EC50 [10]: 2000 - 3000 | Ratio [11]: 46 to 47 | Ratio EC50 [12]: 2 | Ratio EC50 [13]: 11 - 16 | Ratio [14]: 2 | EC50 [15]: 2 nM | Ratio EC50 [16]: 30 - 39 | selectivity ratio [17]: 70800 to 78700 | ID50 [18]: 740 to 840 nM | Ratio EC50 [19]: 5 - 15 | ID50 [20]: 16 to 18 nM | ID50 [21]: 38 to 42 nM | EC50 [22]: 0.9 to 1 nM | ID50 [23]: 340 to 420 nM

COC(c1nc(NC2CCCC2)[nH]c(=O)c1C)c1c(F)cccc1F (stereo unspecified)
Ratio EC50 [1]: 85 | EC50 [2]: 77 nM | Ratio EC50 [3]: 3 - 10 | EC50 [4]: 5 to 6 nM | Ratio EC50 [5]: 6 - 7 | EC50 [6]: 69 to 75 nM | EC50 [7]: 700 to 740 nM | CC50 at 120 h [8]: 74600 nM | Ratio [9]: 23 | Ratio EC50 [10]: 2000 - 3000 | Ratio [11]: 57 | Ratio EC50 [12]: 2 | Ratio EC50 [13]: 83 - 86 | Ratio [14]: 3 | EC50 [15]: 2 nM | Ratio EC50 [16]: 822 - 875 | selectivity ratio [17]: 82900 to 93200 | ID50 [18]: 850 nM | Ratio EC50 [19]: 5 - 15 | ID50 [20]: 15 nM | ID50 [21]: 39 nM | EC50 [22]: 0.8 to 0.9 nM | ID50 [23]: 350 nM

— ChEMBL document CHEMBL4371047, “Effect of α-Methoxy Substitution on the Anti-HIV Activity of Dihydropyrimidin-4(3 H)-ones” (J Med Chem, 2019)
